Calls of active or inactive are those of the source. For most assays here, no stated cut-off is given here; in the data, actives have a measured EC50 and inactives only a lower limit.

Broadly, the CC50 is the concentration giving 50% cytotoxicity. As usually defined, the AC50 is the concentration giving half of the maximal activity seen.

The nature of experiment [1]: HEp-2 cell cytotoxicity, dose response, cytotoxicity control for RSV inhibitor project, HTS (AID 2410). In kind it is functional. The settings on record: human respiratory syncytial virus.
The target of experiment [2] is T1, Corticotropin-releasing factor receptor 2/Corticotropin-releasing factor-binding protein (Homo sapiens, UniProt P24387+Q13324).
T1 sequence (Q13324 whole entry): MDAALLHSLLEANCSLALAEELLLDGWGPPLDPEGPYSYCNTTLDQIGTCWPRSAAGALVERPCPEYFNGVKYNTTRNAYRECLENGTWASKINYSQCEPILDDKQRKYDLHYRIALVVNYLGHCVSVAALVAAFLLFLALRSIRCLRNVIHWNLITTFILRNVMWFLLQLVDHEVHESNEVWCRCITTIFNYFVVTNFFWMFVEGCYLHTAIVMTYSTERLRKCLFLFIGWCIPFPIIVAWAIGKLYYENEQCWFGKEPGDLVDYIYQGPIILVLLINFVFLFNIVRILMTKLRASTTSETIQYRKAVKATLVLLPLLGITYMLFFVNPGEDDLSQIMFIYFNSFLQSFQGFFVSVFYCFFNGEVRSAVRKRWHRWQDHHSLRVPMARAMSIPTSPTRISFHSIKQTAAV
T1 sequence (P24387 whole entry): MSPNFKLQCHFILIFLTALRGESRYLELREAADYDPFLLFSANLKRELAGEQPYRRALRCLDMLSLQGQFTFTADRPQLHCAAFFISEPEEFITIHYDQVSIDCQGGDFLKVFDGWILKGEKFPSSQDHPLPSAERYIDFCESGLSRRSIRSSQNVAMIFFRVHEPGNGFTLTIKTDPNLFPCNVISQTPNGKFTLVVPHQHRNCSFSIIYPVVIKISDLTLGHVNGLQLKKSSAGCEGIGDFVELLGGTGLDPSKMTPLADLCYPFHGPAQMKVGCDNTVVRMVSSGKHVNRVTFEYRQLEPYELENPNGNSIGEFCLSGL
The experiment in a line: activators of CRF receptor 2 with binding protein – uHTS hits, confirmation (AID 602473). In kind it is functional. The settings on record: read-out: EC50_Mean.

Experiment [3] deals with T1, Corticotropin-releasing factor receptor 2/Corticotropin-releasing factor-binding protein. The experiment can be described thus: Dose Response confirmation of uHTS hits for small molecule antagonists of the CRF-binding protein and CRF-R2 receptor complex. In kind it is functional. The settings on record: read-out: IC50_Mean.
For experiment [4], the target named is T2, Replicative DNA helicase DnaB (Mycobacterium tuberculosis, UniProt P9WMR3).
T2 sequence (P9WMR3 whole entry): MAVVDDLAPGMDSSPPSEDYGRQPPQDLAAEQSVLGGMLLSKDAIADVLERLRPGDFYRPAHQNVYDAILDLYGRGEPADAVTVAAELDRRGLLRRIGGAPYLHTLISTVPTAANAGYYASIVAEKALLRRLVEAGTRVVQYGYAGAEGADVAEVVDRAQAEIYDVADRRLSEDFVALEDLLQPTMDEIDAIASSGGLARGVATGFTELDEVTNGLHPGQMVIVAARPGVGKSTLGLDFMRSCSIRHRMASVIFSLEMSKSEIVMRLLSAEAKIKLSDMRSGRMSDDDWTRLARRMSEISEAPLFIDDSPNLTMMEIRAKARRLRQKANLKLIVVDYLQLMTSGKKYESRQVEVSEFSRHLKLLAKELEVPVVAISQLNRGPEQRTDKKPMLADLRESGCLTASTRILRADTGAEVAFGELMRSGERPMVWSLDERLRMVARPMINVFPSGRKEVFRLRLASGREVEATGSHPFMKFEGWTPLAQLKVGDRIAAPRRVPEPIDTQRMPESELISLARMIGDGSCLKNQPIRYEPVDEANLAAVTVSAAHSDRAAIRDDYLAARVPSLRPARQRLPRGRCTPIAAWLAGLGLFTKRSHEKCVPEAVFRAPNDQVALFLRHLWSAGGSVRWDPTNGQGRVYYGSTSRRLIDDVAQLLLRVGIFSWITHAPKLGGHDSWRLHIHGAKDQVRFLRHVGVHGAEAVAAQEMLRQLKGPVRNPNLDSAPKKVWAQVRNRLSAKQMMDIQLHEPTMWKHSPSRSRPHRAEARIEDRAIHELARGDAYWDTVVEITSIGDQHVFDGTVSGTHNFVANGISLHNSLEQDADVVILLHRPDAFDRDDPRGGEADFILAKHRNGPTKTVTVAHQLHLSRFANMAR
The experiment in a line: DnaB intein splicing inhibitors, dose response, biochemical, cell-free fluorescence (AID 449749). In kind it is functional.

The target in the next experiment is T3, Protein RecA (Mycobacterium tuberculosis, UniProt P9WHJ3).
T3 sequence (P9WHJ3 whole entry): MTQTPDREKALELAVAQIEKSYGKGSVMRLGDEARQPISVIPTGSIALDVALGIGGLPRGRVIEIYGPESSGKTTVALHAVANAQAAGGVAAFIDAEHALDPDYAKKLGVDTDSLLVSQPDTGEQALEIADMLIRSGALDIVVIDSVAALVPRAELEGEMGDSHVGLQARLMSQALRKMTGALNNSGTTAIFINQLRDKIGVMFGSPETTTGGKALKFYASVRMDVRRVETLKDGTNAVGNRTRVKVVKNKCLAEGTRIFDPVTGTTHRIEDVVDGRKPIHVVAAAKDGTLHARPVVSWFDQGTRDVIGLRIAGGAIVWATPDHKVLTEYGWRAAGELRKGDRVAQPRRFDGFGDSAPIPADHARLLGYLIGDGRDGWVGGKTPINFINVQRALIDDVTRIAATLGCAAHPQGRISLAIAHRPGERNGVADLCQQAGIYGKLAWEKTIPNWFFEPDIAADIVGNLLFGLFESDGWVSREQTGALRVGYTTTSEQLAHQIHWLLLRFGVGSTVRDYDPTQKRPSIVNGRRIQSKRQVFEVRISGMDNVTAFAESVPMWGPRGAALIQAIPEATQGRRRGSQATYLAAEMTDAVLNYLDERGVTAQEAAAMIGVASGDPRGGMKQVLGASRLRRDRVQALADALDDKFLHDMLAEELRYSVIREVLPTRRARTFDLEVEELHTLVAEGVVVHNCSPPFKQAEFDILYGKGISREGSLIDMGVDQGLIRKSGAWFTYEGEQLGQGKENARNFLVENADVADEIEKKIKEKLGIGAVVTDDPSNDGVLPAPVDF
The experiment in a line: Fluorescence Cell-Free Homogeneous Dose Retest to Identify Inhibitors of RecA-Intein Splicing Activity. [Related pubchem assays (depositor defined):AID2097, AID2223, AID489010, AID492950]. In kind it is functional.

Experiment [5] in a line: Luminescence Cell-Based Dose Response HTS to Identify Inhibitors of 5'UTR Stem-Loop Driven Prion Protein mRNA Translation in H4 Neuroglioblastoma Cells. [Related pubchem assays: 1827 (Project Summary), 1813 (Primary HTS)]. In kind it is functional.
Experiment [6] is described as follows: inhibitors of firefly luciferase expression or activity, dose response, H4 neuroglioma cells, luminescence (AID 1990). In kind it is functional, cell-based.
Experiment [7] can be described thus: inhibitors of SNCA 5'UTR-driven reporter translation, confirmation, H4 neuroglioma cells, luminescence (AID 1988). Type of experiment: functional, cell-based.
Experiment [8] in a line: inhibitors of intracellular T. cruzi replication, confirmation, NIH3T3 host cells, beta-gal luminescence (AID 2044).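 Further: intracellular parasites grown in NIH/3T3 mouse fibroblasts as host cells; luminescent beta-galactosidase reporter signal from transgenic T. cruzi replicating inside host cells; inhibitors lower the luminescence signal.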 Type of experiment: functional, cell-based.
The nature of experiment [9]: cytotoxicity toward NIH3T3 fibroblasts, dose response, counter-screen, cell-based, ATP luminescence, mouse fibroblasts (AID 2010).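 Further: cells exposed to compound for about 90 hours before reading.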 Type of experiment: functional. For orientation: Counterscreens check selectivity or assay interference.
The target in experiment [10] is T4, Heat shock factor protein 1 (Mus musculus, UniProt P38532).
T4 sequence (P38532 whole entry): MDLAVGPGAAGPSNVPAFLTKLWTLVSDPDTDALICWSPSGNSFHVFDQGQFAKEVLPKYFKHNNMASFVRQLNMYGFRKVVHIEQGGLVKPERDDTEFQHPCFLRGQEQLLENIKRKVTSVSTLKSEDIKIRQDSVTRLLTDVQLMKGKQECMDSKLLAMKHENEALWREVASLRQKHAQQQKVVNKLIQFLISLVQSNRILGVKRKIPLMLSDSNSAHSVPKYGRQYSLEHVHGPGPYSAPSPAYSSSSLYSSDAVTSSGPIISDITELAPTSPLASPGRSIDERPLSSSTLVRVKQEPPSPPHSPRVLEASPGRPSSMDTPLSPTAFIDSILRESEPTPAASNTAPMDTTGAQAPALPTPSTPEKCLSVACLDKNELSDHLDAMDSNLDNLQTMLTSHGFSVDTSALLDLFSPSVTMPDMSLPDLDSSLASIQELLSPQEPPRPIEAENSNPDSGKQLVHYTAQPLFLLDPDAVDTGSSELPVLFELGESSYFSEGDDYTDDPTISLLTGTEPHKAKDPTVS
The experiment in a line: inhibition of MG132-induced HSE-luciferase signal, confirmation, cell-based, NIH3T3, luminescence, dose retest (AID 2382).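 Further: NIH3T3 fibroblasts with HSF1-driven luciferase reporter stressed by proteasome inhibitor MG132; luminescence from HSF1-driven luciferase expression after 8 hours of MG132 stress.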 Type of experiment: functional.

Regarding `CCc1cccc(NC(=O)c2cccc3c2C(=O)N(C2CCCCC2)C3)c1`, the CC50 in experiment [1] is 38.1 µM (active).

On to `CCOc1ccccc1NC(=O)C1CCCN1S(=O)(=O)c1ccccc1C(F)(F)F` (stereo not given), for which, in [2], the EC50 was > 53 µM (inactive). For the same compound, in experiment [3], the IC50 was > 47.1 µM (inactive).

Regarding `CCOC(=O)c1[nH]c2ccccc2c1NC(=O)Nc1ccc(OC)cc1`, the EC50 in experiment [2] was > 53 µM (inactive). Moreover, the IC50 in [3] is > 47.1 µM (inactive).

As to `O=C(COC(=O)c1ccncc1)Nc1cc(Cl)ccc1Cl`, the EC50 in experiment [2] was > 53 µM (inactive). Also, in experiment [3], the IC50 was > 47.1 µM (inactive).

On to `COc1ccc(N2CCN(C(=O)c3ccc(-n4nc(C)cc4C)cc3)CC2)cc1`, for which the cytotoxic concentration (CC50) in experiment [1] is 42 µM (active).

Turning to `COc1ccc(-c2cc(-c3ccccc3O)[nH]n2)cc1OC`, the CC50 in experiment [1] is > 50 µM (active).

Take `COc1ccc(OCCCC(=O)Nc2cccnc2)cc1`: the EC50 in experiment [2] was > 53 µM (inactive). Besides, the IC50 in [3] was > 47.1 µM (inactive).

With `c1ccc(Sc2ncnc3ccccc23)cc1`, the AC50 in experiment [4] is 21.9 µM (active). Moreover, the EC50 on Protein RecA was 11.2 µM (active).

Take `CCOc1ccccc1N(C)C(=O)Cn1ncc2c3ccccc3nc-2c1O`: the EC50 in [2] is > 53 µM (inactive). The IC50 in [3] was > 47.1 µM (inactive).

As for `Cc1nn(Cc2ccccc2Cl)c(C)c1NC(=O)c1nc2ncccn2n1`, the EC50 in experiment [2] is > 53 µM (inactive). In addition, the IC50 in experiment [3] was > 47.1 µM (inactive).

Regarding `COC(=O)N/N=C\c1ccc(OC(=O)c2ccco2)cc1`, in experiment [4], the concentration at half-maximal activity (AC50) is 44.6 µM (active). On Protein RecA, the EC50 was 16.7 µM (active).

`C/C(CC(=O)NCc1ccco1)=N\NC(=O)c1ccc([N+](=O)[O-])cc1Cl`: in experiment [4], the AC50 was 10.2 µM (active). The EC50 on Protein RecA is 5.56 µM (active).

On to `Cc1ccc(C(=O)COc2cc(O)c3c(=O)cc(-c4ccccc4)oc3c2)cc1`, for which the EC50 in experiment [2] is > 53 µM (inactive). The IC50 in [3] is > 47.1 µM (inactive).

`CCc1ccc(CNn2cnnc2SCC(=O)NC(C)(C)C)cc1`: the EC50 in experiment [5], in experiment [6] and in [7] was > 120 µM (not active) throughout.

For `Cc1ccc(NC(=O)CSc2nc3ccccc3c(=O)n2CCCC(=O)NCCCN2CCOCC2)cc1`, in experiment [2], the EC50 is > 53 µM (inactive). In addition, the IC50 in experiment [3] is > 47.1 µM (inactive).

As for `COC(=O)Nc1nn(-c2ccc(OC)cc2)c(=O)c(C#N)c1C`, the AC50 in [4] was 25.9 µM (active). The EC50 at Protein RecA is 6.31 µM (active).

`Nc1ccc(C(=O)N/N=C/c2cn(Cc3ccc(F)cc3)c3ccccc23)cc1`: the EC50 in experiment [5] was 17.7 µM (active); in [6], 10.1 µM (active); in experiment [7], 7.7 µM (active).

In the case of `COc1cccc(Nc2ncc(C#N)c(N)n2)c1`, the EC50 is 14.2 µM (active) in experiment [5], 16.4 µM (active) in experiment [6] and 14.5 µM (active) in experiment [7].

For the compound `CCOC(=O)c1ccc(N2CN(CC)CN=C2S)cc1`, the EC50 in [5], in [6] and in [7] was > 120 µM (not active) throughout.

Regarding `CCC(NN1CCCCC1)=C1C(=O)NC(=O)NC1=O`, the EC50 in experiment [5] was > 120 µM (not active); in [6], 11.9 µM (active); in [7], 10.2 µM (active).

For the compound `CC(=O)N(C(C)=O)c1ncnc2c1c(-c1ccc(Cl)cc1)nn2C(C)(C)C`, the EC50 in [8] was 0.512 µM (active); in experiment [5], 20.1 µM (active); in experiment [6], 13.1 µM (active); in experiment [7], 25.1 µM (active); in experiment [9] it was 4.21 µM (active).

As to `COCCN(Cc1ccccc1)C(S)=Nc1ccc(Cl)cc1`, the EC50 in experiment [5] is > 120 µM (not active); in [6], > 120 µM (not active); in [7] it was 16.8 µM (active); in experiment [10], 30.3 µM (active).

In the case of `COCc1cc(O)n2nc(-c3ccccc3)cc2n1`, in experiment [2], the EC50 was > 53 µM (inactive). For the same compound, the IC50 in experiment [3] was > 47.1 µM (inactive).

On to `CC(C)(C)c1cc(C(=O)O)nn1-c1ccccc1`, for which, in experiment [2], the EC50 is > 53 µM (inactive). In [3], the IC50 was > 47.1 µM (inactive).

Turning to `CC(C)C(NC(=O)c1ccco1)C(=O)NC1CCCCCC1` (stereo not given), in [2], the EC50 was > 53 µM (inactive). Besides, in experiment [3], the IC50 is > 47.1 µM (inactive).

As for `O=C(COc1ncnc2sccc12)N1CCN(C(=O)c2ccco2)CC1`, the EC50 in [5], in experiment [6] and in experiment [7] was > 120 µM (not active) each time.

The values above are taken from ChEMBL document CHEMBL1201862, “PubChem BioAssay data set” (2004).
